Laboratory results reported in US12065429B2, “Small molecule modulators of IL-17” (LEO Pharma A/S, priority 2022, dated 2024).
Values after ≈ are worked out from the molar mass of the structure shown.

Legend:
[1] = target: T1, recombinant IL-17AA (Homo sapiens, UniProt Q16552); test: Inhibition of recombinant IL-17AA-induced SEAP reporter gene activity in HEK-Blue IL-17 cells; type: cell-based; details: recombinant IL-17A 2 ng/ml, overnight
T1 construct: purchased R&D Systems 7955-IL
T1 sequence (Q16552 24-155): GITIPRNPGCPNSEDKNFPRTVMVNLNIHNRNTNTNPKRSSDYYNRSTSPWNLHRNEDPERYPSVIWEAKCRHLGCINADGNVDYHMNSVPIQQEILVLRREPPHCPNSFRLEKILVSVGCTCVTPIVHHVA
Method: Example 62: Inhibition of Recombinant IL-17AA-Induced SEAP Reporter Gene Activity in HEK-Blue™ IL-17 Cells
The assay was run according to the protocol provided by InvivoGen. Briefly, the HEK-Blue™ IL-17 cells (Invivogen, cat #hkb-il17) were suspended in the complete culture medium and seeded in a 96 well plate in a volume of 80 μl in a density of 50,000 cells per well the day before the assay. 10 μl of a solution of the test compounds were added in a serial gradient dilution to the cells followed by the addition of 10 μl IL-17A (R&D Systems cat #7955-IL) in a final concentration of 2 ng/ml. The plate was incubated overnight. The QUANTI-Blue™ solution was used to determine the SEAP activity; 180 μl QUANTI-Blue™ solution and 20 μl of the supernatant from the cell plate were mixed and incubated for 1 hour at 37 degrees Celsius. SEAP levels were measured using a spectrophotometer at 650 nm.

[2] = Solubility assay; type: physicochemical; details: 0.067 M phosphate buffer pH 6.5, 24 hours shaking, from 10 mM DMSO stock; for solubility at 24 h: aqueous buffer, kinetic from dmso stock
Method: After centrifugation, the supernatant was analyzed by HPLC-UV. The solubility was defined as the concentration of the test substance in the selected solvent. It was determined by correlation with an external standard calibration curve.

[3] = Human liver microsome (HLM) clearance assay; type: in vitro ADME; details: human liver microsomes 0.5 mg/mL, NADPH 1 mM, 0.5 μM compound, 40 min
Method: Example 63: Human Liver Microsome (HLM) Clearance Assay
Samples were taken out before addition of NADPH, and at 5, 10, 20 and 40 minutes thereafter and protein precipitation using cold acetonitrile with added internal standard was performed prior to centrifugation and sample analysis using compound specific LCMS/MS methods. Control incubations in buffer and without NADPH were performed in the same manner. Compound depletion was determined and apparent clearance (CLapp) was calculated.

Row | EC50 [1] [nM] | solubility at 24 h [2] [µg/mL] | HLM Clapp [3] [mL/min/kg] | Solubility at pH 6.5 [2] [μg/mL] | Structure (SMILES)
1 | 31 | – | – | – | CCc1c(-c2ccc(NC(=O)[C@@H](NC(=O)c3ccnn3C(C)C)C(C3CC3)C3CC3)nc2F)cc(OC)c[n+]1[O-] [Example 60, N-[(1S)-1-(dicyclopropylmethyl)-2-[[6-fluoro-5-(5-methoxy-2-ethyl-1-oxido-pyridin-1-ium-3-yl)-2-pyridyl]amino]-2-oxo-ethyl]-2-isopropyl-pyrazole-3-carboxamide]
2 | 11 | 29 (≈ 54 µM) | 12 | – | COc1cc(-c2ccc(NC(=O)[C@@H](NC(=O)c3ccnn3C(C)C)C(C3CC3)C3CC3)nc2F)c(C)[n+]([O-])c1 [Example 1, N-[(1S)-1-(dicyclopropylmethyl)-2-[[6-fluoro-5-(5-methoxy-2-methyl-1-oxido-pyridin-1-ium-3-yl)-2-pyridyl]amino]-2-oxo-ethyl]-2-isopropyl-pyrazole-3-carboxamide]
3 | 100 | 14 (≈ 23.9 µM) | 10 | – | Cc1c(-c2ccc(NC(=O)[C@@H](NC(=O)c3ccnn3C(C)C)C(C3CC3)C3CC3)nc2F)cc(S(C)(=O)=O)c[n+]1[O-] [Example 58, N-[(1S)-1-(dicyclopropylmethyl)-2-[[6-fluoro-5-(2-methyl-5-methylsulfonyl-1-oxido-pyridin-1-ium-3-yl)-2-pyridyl]amino]-2-oxo-ethyl]-2-isopropyl-pyrazole-3-carboxamide]
4 | 17 | 45 (≈ 86.4 µM) | <8 | – | Cc1cc(-c2ccc(NC(=O)[C@@H](NC(=O)c3ccnn3C(C)C)C(C3CC3)C3CC3)nc2F)c(C)[n+]([O-])c1 [Example 3, N-[(1S)-1-(dicyclopropylmethyl)-2-[[5-(2,5-dimethyl-1-oxido-pyridin-1-ium-3-yl)-6-fluoro-2-pyridyl]amino]-2-oxo-ethyl]-2-isopropyl-pyrazole-3-carboxamide]
5 | – | 19 (≈ 34.1 µM) | <8 | – | Cc1c(-c2ccc(NC(=O)[C@@H](NC(=O)c3ccnn3C(C)C)C(C3CC3)C3CC3)nc2F)c[n+]([O-])cc1C(F)F [Example 48, N-[(1S)-1-(dicyclopropylmethyl)-2-[[5-[5-(difluoromethyl)-4-methyl-1-oxido-pyridin-1-ium-3-yl]-6-fluoro-2-pyridyl]amino]-2-oxo-ethyl]-2-isopropyl-pyrazole-3-carboxamide]
6 | – | 28 (≈ 53.7 µM) | 73 | – | Cc1cc(-c2ccc(NC(=O)[C@@H](NC(=O)c3conc3C(C)C)C(C3CC3)C3CC3)nc2F)c(C)[n+]([O-])c1 [Example 22, N-[(1S)-1-(dicyclopropylmethyl)-2-[[5-(2,5-dimethyl-1-oxido-pyridin-1-ium-3-yl)-6-fluoro-2-pyridyl]amino]-2-oxo-ethyl]-3-isopropyl-isoxazole-4-carboxamide]
7 | 4.6 | < 1 | 16 | – | Cc1cc[n+]([O-])c(C)c1-c1ccc(NC(=O)[C@@H](NC(=O)c2ccnn2C(C)C)C(C2CC2)C2CC2)nc1Cl (single isomer, unassigned) [Example 56]
8 | – | 4 (≈ 7.68 µM) | <8 | – | Cc1c[n+]([O-])cc(-c2ccc(NC(=O)[C@@H](NC(=O)c3ccnn3C(C)C)C(C3CC3)C3CC3)nc2F)c1C [Example 52, N-[(1S)-1-(dicyclopropylmethyl)-2-[[5-(4,5-dimethyl-1-oxido-pyridin-1-ium-3-yl)-6-fluoro-2-pyridyl]amino]-2-oxo-ethyl]-2-isopropyl-pyrazole-3-carboxamide]
9 | – | 18 (≈ 32.3 µM) | <8 | – | Cc1c(-c2ccc(NC(=O)[C@@H](NC(=O)c3ccnn3C(C)C)C(C3CC3)C3CC3)nc2F)cc(C(F)F)c[n+]1[O-] [Example 49, N-[(1S)-1-(dicyclopropylmethyl)-2-[[5-[5-(difluoromethyl)-2-methyl-1-oxido-pyridin-1-ium-3-yl]-6-fluoro-2-pyridyl]amino]-2-oxo-ethyl]-2-isopropyl-pyrazole-3-carboxamide]
10 | – | – | 41 | <1 | Cc1c(-c2ccc(NC(=O)[C@@H](NC(=O)c3ccnn3C(C)C)C(C3CC3)C3CC3)nc2F)c(C(F)(F)F)cc[n+]1[O-] (single isomer, unassigned) [Example 55]
11 | – | 26 (≈ 49.6 µM) | <8 | – | Cc1c(-c2ccc(NC(=O)[C@@H](NC(=O)c3ccnn3C(C)C)C(C3CC3)C3CC3)nc2F)cc(F)c[n+]1[O-] [Example 2, N-[(1S)-1-(dicyclopropylmethyl)-2-[[6-fluoro-5-(5-fluoro-2-methyl-1-oxido-pyridin-1-ium-3-yl)-2-pyridyl]amino]-2-oxo-ethyl]-2-isopropyl-pyrazole-3-carboxamide]
12 | – | 26 (≈ 48.4 µM) | <8 | – | Cc1cc(-c2ccc(NC(=O)[C@@H](NC(=O)c3ccnn3C(C)C)C(C3CC3)C3CC3)nc2Cl)c(C)[n+]([O-])c1 [Example 18, N-[(1S)-1-[[6-chloro-5-(2,5-dimethyl-1-oxido-pyridin-1-ium-3-yl)-2-pyridyl]carbamoyl]-2,2-dicyclopropyl-ethyl]-2-isopropyl-pyrazole-3-carboxamide]
13 | 46 | 29 (≈ 54.6 µM) | <9 | – | Cc1c(-c2ccc(NC(=O)[C@@H](NC(=O)c3ccnn3C(C)C)C(C3CC3)C3CC3)nc2F)cc(C#N)c[n+]1[O-] [Example 59, N-[(1S)-1-[[5-(5-cyano-2-methyl-1-oxido-pyridin-1-ium-3-yl)-6-fluoro-2-pyridyl]carbamoyl]-2,2-dicyclopropyl-ethyl]-2-isopropyl-pyrazole-3-carboxamide]
14 | – | 9 (≈ 16.3 µM) | 22 | – | CCOc1cc(-c2ccc(NC(=O)[C@@H](NC(=O)c3ccnn3C(C)C)C(C3CC3)C3CC3)nc2F)c(C)[n+]([O-])c1 [Example 10, N-[(1S)-1-(dicyclopropylmethyl)-2-[[5-(5-ethoxy-2-methyl-1-oxido-pyridin-1-ium-3-yl)-6-fluoro-2-pyridyl]amino]-2-oxo-ethyl]-2-isopropyl-pyrazole-3-carboxamide]
15 | – | 97 (≈ 191 µM) | <8 | – | Cc1cc[n+]([O-])cc1-c1ccc(NC(=O)[C@@H](NC(=O)c2ccnn2C(C)C)C(C2CC2)C2CC2)nc1F [Example 15, N-[(1S)-1-(dicyclopropylmethyl)-2-[[6-fluoro-5-(4-methyl-1-oxido-pyridin-1-ium-3-yl)-2-pyridyl]amino]-2-oxo-ethyl]-2-isopropyl-pyrazole-3-carboxamide]
16 | – | 39 (≈ 74.9 µM) | <8 | – | CCc1cc[n+]([O-])cc1-c1ccc(NC(=O)[C@@H](NC(=O)c2ccnn2C(C)C)C(C2CC2)C2CC2)nc1F [Example 53, N-[(1S)-1-(dicyclopropylmethyl)-2-[[5-(4-ethyl-1-oxido-pyridin-1-ium-3-yl)-6-fluoro-2-pyridyl]amino]-2-oxo-ethyl]-2-isopropyl-pyrazole-3-carboxamide]
17 | – | 8 (≈ 14 µM) | 8 | – | Cc1c(-c2ccc(NC(=O)[C@@H](NC(=O)c3ccnn3C(C)C)C(C3CC3)C3CC3)nc2F)cc(OC(F)F)c[n+]1[O-] [Example 8, N-[(1S)-1-(dicyclopropylmethyl)-2-[[5-[5-(difluoromethoxy)-2-methyl-1-oxido-pyridin-1-ium-3-yl]-6-fluoro-2-pyridyl]amino]-2-oxo-ethyl]-2-isopropyl-pyrazole-3-carboxamide]
18 | – | 5 (≈ 8.92 µM) | 14 | – | CC(C)n1nccc1C(=O)N[C@H](C(=O)Nc1ccc(-c2c[n+]([O-])ccc2C(F)(F)F)c(F)n1)C(C1CC1)C1CC1 [Example 6, N-[(1S)-1-(dicyclopropylmethyl)-2-[[6-fluoro-5-[1-oxido-4-(trifluoromethyl)pyridin-1-ium-3-yl]-2-pyridyl]amino]-2-oxo-ethyl]-2-isopropyl-pyrazole-3-carboxamide]
19 | 740 | – | 18 | <1 | Cc1cc[n+]([O-])c(C)c1-c1ccc(NC(=O)[C@@H](NC(=O)c2ccnn2C(C)C)C(C2CC2)C2CC2)nc1Cl (single isomer, unassigned) [Example 57]
